According to patent US8470783B2, “Medicinal use of histone deacetylase inhibitor and method of evaluating antitumor effect thereof” (Astellas Pharma Inc., priority 2001, dated 2013):

Tests used:
[1] = tested on: p21 gene expression in PC-3 cells; assay: p21 gene expression in vitro by real time PCR, PC-3 (Example 4); type: cell-based, human; conditions: PC-3, FR901228 5 ng/mL, FIG. 4(a)
Protocol: (§1) A necessary amount of FR901228 was weighed and dissolved in a solvent (99.5% ethanol) to the concentration of 1 mg/mL. Then, the solution was diluted with culture medium.
(§2) Cultured human cancer cell (PC-3 and ACHN) were cultured in DMEM (containing 10% FCS).
(§3) The cells were inoculated at 2×10^6 cells per a culture dish, and cultured in the presence of FR901228 (5 ng/mL) for a given time. After culturing, RNA was extracted with a TRIZOL reagent (GIBCO BRL) according to the operation manual.
(§4) RNA was subjected to reverse transcription using a Taq-man reverse transcription reagent (PE Biosystem) according to the operation manual. Thereafter, p21 gene was amplified using a SYBR green PCR master mix (PE Biosystem) and primer 5′-GGCAGACCAGCATGACACATT-3′ (p21 upstream)(SEQ ID; No 1), 5′-GGATTAGGGCTTCCTCTTGGAG-3′ (SEQ ID; No 2) according to the operation manual, and detected with ABI 7700 PRISM sequence detector (PE Biosystem). The expression amount of p21 gene was calculated from a standard curve, divided by the expression amount of β-actin gene, which was used as an internal standard, and expressed in a standardized relative expression amount.

[2] = tested on: human gastric cancer SC-6; assay: In vivo growth suppression rate, SC-6 tumor-carrying mice; design: species or system mouse; conditions: SC-6, FR901228 3.2 mg/kg
Protocol: (§5) The growth suppression rate of human prostate cancer PC-3, human gastric cancer SC-6, human kidney cancer ACHN and human kidney cancer A498 by the administration of FR901228 (3.2 mg/kg) was 98%, 84%, 20% and 29%, respectively. Therefore, PC-3 and SC-6 were determined to be FK228 sensitive tumors, and ACHN and A498 were determined to be FK228 resistant tumors.

[3] = tested on: human lymphoma cell line U937; assay: Survival test, human lymphoma U937 implanted intraperitoneally in SCID mice (Example 2); type: in vivo, mouse; conditions: U937, i.p. once or twice a week, 0.1-1.0 mg/kg, FIG. 2
Protocol: A necessary amount of FR901228 was weighed and a solvent (10% HCO-60/saline) was added. The mixture was sonicated to allow for dissolution.
For antitumor test of the pharmaceutical agent, Fox Chase C. B-17/Icr-SCID.Jcl mice (male, 6-week-old) were purchased from CLEA JAPAN INC. and, after acclimation for not less than one week, used for the test. The mice were reared under an SPF environment and allowed a free access to water and feed.
Cultured human lymphoma cell line (U937: obtained from Dr. Minowada, Hayashibara Biochemical Laboratories, Inc.) was cultured in RPMI (containing 10% FCS) and subcultured in vitro.
Cyclo phosphamide (Shionogi & Co., Ltd., 150 mg/kg) was intraperitoneally administered to mice. Lymphoma (1×10^7 cells) subcultured in vitro was intraperitoneally implanted the next day. After the tumor implantation, the mice were grouped into 6 (control group 12) mice per group to level the body weight.
The administration was started on the day of grouping (Day 0). FR901228 was intraperitoneally administered to an FR901228 administration group once or twice a week (0.1-1.0 mg/kg). Only a solvent (10% HCO-60/saline) was administered to a control group.
As an antitumor effect, the survival days of the mice were counted.

[4] = tested on: human prostate cancer cell line PC-3; assay: Antitumor test, human prostate cancer PC-3 solid tumor in nude mice (Example 3); type: in vivo, mouse; conditions: dose of 3.2 mg/kg i.v. q4d×3, FIG. 3(a)
Protocol: (§6) A necessary amount of FR901228 was weighed and a solvent (10% HCO-60/saline) was added. The mixture was sonicated to allow for dissolution. A positive control substance Paclitaxel was dissolved in Cremophor EL/ethanol (1:1) solution to 24 mg/mL prior to the testing, and preserved in a refrigerator. When in use, it was diluted with a 9-fold amount of physiological saline to 2.4 mg/mL (solvent component: 5% Cremophor EL-5% ethanol-90% saline).
(§7) For antitumor test of the pharmaceutical agent, BALB/cANnNCrj-nu/nu mice (male, […]) were purchased from Charles River Japan and, after acclimation for not less than one week, used for the test. The mice were reared under an SPF environment and allowed a free access to water and feed. […]
(§8) The administration was started on the day of grouping (Day 0). […] The amount of liquid for each administration was calculated (0.1 mL/10 g body weight) based on the body weight measured on the administration day. […]
(§9) The tumor size (longer diameter, shorter diameter) and body weight were measured twice a week from Day 0.
(§10) The level of tumor growth was evaluated based on the tumor growth rate (Relative Tumor Volume). […] The antitumor effect was determined on the 14th day (Day 14) from the start of the administration of a pharmaceutical agent. […]

[5] = tested on: p21 gene and c-myc gene expression in ACHN tumor; assay: p21 and c-myc gene expression in vivo in ACHN tumor of nude mouse (Example 5); conditions: 3.2 mg/kg i.v.
Protocol: (§11) Human prostate cancer PC-3 or kidney cancer ACHN was subcutaneously implanted in a nude mouse, and when the size of the tumor reached 100-300 mg, FR901228 (3.2 mg/kg) was intravenously administered. The tumor was removed with the lapse of time, and after extracting RNA, the expression amount of p21 gene and c-myc gene was examined by real time PCR in the same manner as in Example 4. The c-myc gene was amplified using a SYBR green PCR master mix (PE Biosystem) and primer 5′-GACAGATCAGCAACAACCGAAA-3′ (human c-myc upstream)(SEQ ID; No 3), 5′-TTGTGTGTTCGCCTCTTGACAT-3′ (human c-myc downstream)(SEQ ID; No 4) according to the operation manual, and detected with ABI 7700 PRISM sequence detector (PE Biosystem).

[6] = tested on: human kidney cancer cell line ACHN; assay: Antitumor test, human kidney cancer ACHN solid tumor in nude mice (Example 3); type: in vivo, mouse; conditions: i.v. q4d×3, FIG. 3(b)
Protocol: as §6, §7, §8, §9, §10

[7] = tested on: p21 gene expression in ACHN cells; assay: p21 gene expression in vitro by real time PCR, ACHN (Example 4); type: cell-based, human; conditions: FR901228 5 ng/mL, FIG. 4(b)
Protocol: as §1, §2, §3, §4

human kidney cancer A498 = assay: In vivo growth suppression rate, A498 tumor-carrying mice; design: species or system mouse; conditions: A498, FR901228 3.2 mg/kg
Protocol: as §5

[8] = tested on: p21 gene and c-myc gene expression in PC-3 tumor; assay: p21 and c-myc gene expression in vivo in PC-3 tumor of nude mouse (Example 5); conditions: 3.2 mg/kg i.v.
Protocol: as §11

human kidney cancer ACHN [9] = assay: In vivo growth suppression rate, ACHN tumor-carrying mice; design: species or system mouse; conditions: FR901228 3.2 mg/kg
Protocol: as §5

[10] = tested on: human prostate cancer PC-3; assay: In vivo growth suppression rate, PC-3 tumor-carrying mice; design: species or system mouse; conditions: PC-3, FR901228 3.2 mg/kg
Protocol: as §5

[11] = tested on: human prostate cancer cell line PC-3; assay: Antitumor test, human prostate cancer PC-3 solid tumor in nude mice (Example 1); type: in vivo, mouse; conditions: PC-3, i.v. q4d×3, 3.2 and 1.8 mg/kg, FIG. 1
Protocol: as §6
For antitumor test of the pharmaceutical agent, BALB/cANnNCrj-nu/nu mice (male, 6-week-old) were purchased from Charles River Japan and, after acclimation for not less than one week, used for the test. The mice were reared under an SPF environment and allowed a free access to water and feed. […]
as §8, §9
The level of tumor growth was evaluated based on the tumor growth rate (Relative Tumor Volume). […] The antitumor effect was determined on the 14th day (Day 14) from the start of the administration of the pharmaceutical agent. […]

histone deacetylase = conditions: Nakajima, H. et al (1998); cited from earlier work
human kidney cancer ACHN [12] = assay: In vitro growth suppression, ACHN; type: cell-based; conditions: contacted for 72 hr
human lymphoma U937 = assay: In vitro growth suppression, U937; type: cell-based; conditions: U937, contacted for 72 hr
[13] = tested on: human prostate cancer PC-3; assay: In vitro growth suppression, PC-3; type: cell-based; conditions: PC-3, contacted for 72 hr

growth suppression effect in IC50 value (human kidney cancer ACHN [12]) [ng/mL]	growth suppression effect in IC50 value (human lymphoma U937) [ng/mL]	growth suppression effect in IC50 value [13] [ng/mL]	Molecule	p21 gene expression in vitro [1]	growth suppression rate [2] [%]	antitumor effect in vivo against human lymphoma (survival of mice) [3]	antitumor effect against PC-3 (tumor growth rate) [4]	c-myc gene expression in vivo [5]	p21 gene expression in vivo ([5]; FIG. 5(a))	antitumor effect against ACHN (tumor growth rate) [6]	p21 gene expression in vitro [7]	growth suppression rate (human kidney cancer A498) [%]	c-myc gene expression in vivo [8]	time of peak of p21 gene expression after administration [8] [h]	p21 gene expression in vivo ([8]; FIG. 5(a))	growth suppression rate (human kidney cancer ACHN [9]) [%]	growth suppression rate [10] [%]	antitumor effect in vivo against human prostate cancer (tumor growth rate) [11]	histone deacetylase inhibitory activity (histone deacetylase)
–	–	–	C/C=C1\NC(=O)[C@H]2CSSCC/C=C/[C@H](CC(=O)N[C@H](C(C)C)C(=O)N2)OC(=O)[C@H](C(C)C)NC1=O [FR901228]	increased expression of the p21 gene with the lapse of time	84	showed an antitumor effect	potent antitumor effect	increased expression	did not show increased expression of p21 gene	did not show an antitumor effect	did not show increased expression of p21 gene	29	decreased expression	3	increased expression of p21 gene	20	98	showed an antitumor effect	stronger histone deacetylase inhibitory activity
4.25	3.20	3.17	FK228	–	–	–	–	–	–	–	–	–	–	–	–	–	–	–	–
